Patent US6352958B1, “Cycloimido-substituted benzofused heterocyclic herbicides” (FMC Corporation, priority 1997, dated 2002)

Assays:
Assay type in all cases: in vivo
[1] = test system: Johnsongrass (Sorghum halepense); test: Preemergence herbicidal activity, johnsongrass; details: Rate of Application 0.3 Kg/Ha, examined after 12-17 days
[2] = test system: soybean (Glycine max var. Winchester); test: Postemergence herbicidal activity, soybean; details: rate of application 0.3 Kg/Ha, rated after 12-17 days
[3] = test system: blackgrass (Aloepecurus myosuroides); test: Preemergence herbicidal activity, blackgrass; details: Rate of Application 0.3 Kg/Ha, examined after 12-17 days
[4] = test system: common cocklebur (Xanthium strumarium L.); test: Postemergence herbicidal activity, cocklebur; details: rate of application 0.3 Kg/Ha, rated after 12-17 days
[5] = test system: velvetleaf (Abutilon theophrasti); test: Preemergence herbicidal activity, velvetleaf; details: Rate of Application 0.3 Kg/Ha, examined after 12-17 days
[6] = test system: wheat (Triticum aestivum var. Lew); test: Preemergence herbicidal activity, wheat; details: Rate of Application 0.3 Kg/Ha, examined after 12-17 days
[7] = test system: common chickweed (Stellaria media); test: Preemergence herbicidal activity, chickweed; details: Rate of Application 0.3 Kg/Ha, examined after 12-17 days
[8] = test system: common cocklebur (Xanthium strumarium L.); test: Preemergence herbicidal activity, cocklebur; details: Rate of Application 0.3 Kg/Ha, examined after 12-17 days
[9] = test system: field corn (Zea mays var. Pioneer 3732); test: Postemergence herbicidal activity, corn; details: rate of application 0.3 Kg/Ha, rated after 12-17 days
[10] = test system: common chickweed (Stellaria media); test: Postemergence herbicidal activity, chickweed; details: rate of application 0.3 Kg/Ha, rated after 12-17 days
[11] = test system: blackgrass (Aloepecurus myosuroides); test: Postemergence herbicidal activity, blackgrass; details: rate of application 0.3 Kg/Ha, rated after 12-17 days
[12] = test system: wheat (Triticum aestivum var. Lew); test: Postemergence herbicidal activity, wheat; details: rate of application 0.3 Kg/Ha, rated after 12-17 days
[13] = test system: soybean (Glycine max var. Winchester); test: Preemergence herbicidal activity, soybean; details: Rate of Application 0.3 Kg/Ha, examined after 12-17 days
[14] = test system: green foxtail (Setaria viridis); test: Postemergence herbicidal activity, green foxtail; details: rate of application 0.3 Kg/Ha, rated after 12-17 days
[15] = test system: morningglory (Ipomea lacunosa or Ipomea hederacea); test: Preemergence herbicidal activity, morningglory; details: Rate of Application 0.3 Kg/Ha, examined after 12-17 days
[16] = test system: velvetleaf (Abutilon theophrasti); test: Postemergence herbicidal activity, velvetleaf; details: rate of application 0.3 Kg/Ha, rated after 12-17 days
[17] = test system: field corn (Zea mays var. Pioneer 3732); test: Preemergence herbicidal activity, corn; details: Rate of Application 0.3 Kg/Ha, examined after 12-17 days
[18] = test system: morningglory (Ipomea lacunosa or Ipomea hederacea); test: Postemergence herbicidal activity, morningglory; details: rate of application 0.3 Kg/Ha, rated after 12-17 days
[19] = test system: green foxtail (Setaria viridis); test: Preemergence herbicidal activity, green foxtail; details: Rate of Application 0.3 Kg/Ha, examined after 12-17 days
[20] = test system: Johnsongrass (Sorghum halepense); test: Postemergence herbicidal activity, johnsongrass; details: rate of application 0.3 Kg/Ha, rated after 12-17 days

| Compound | PREEMERGENCE HERBICIDAL ACTIVITY (% CONTROL) SORHA [1] [%] | Postemergence herbicidal activity (% control) SOY [2] [%] | PREEMERGENCE HERBICIDAL ACTIVITY (% CONTROL) ALOMY [3] [%] | Postemergence herbicidal activity (% control) XANPE [4] [%] | PREEMERGENCE HERBICIDAL ACTIVITY (% CONTROL) ABUTH [5] [%] | PREEMERGENCE HERBICIDAL ACTIVITY (% CONTROL) WHT [6] [%] | PREEMERGENCE HERBICIDAL ACTIVITY (% CONTROL) STEME [7] [%] | PREEMERGENCE HERBICIDAL ACTIVITY (% CONTROL) XANPE [8] [%] | Postemergence herbicidal activity (% control) CRN [9] [%] | Postemergence herbicidal activity (% control) STEME [10] [%] | Postemergence herbicidal activity (% control) ALOMY [11] [%] | Postemergence herbicidal activity (% control) WHT [12] [%] | PREEMERGENCE HERBICIDAL ACTIVITY (% CONTROL) SOY [13] [%] | Postemergence herbicidal activity (% control) SETVI [14] [%] | PREEMERGENCE HERBICIDAL ACTIVITY (% CONTROL) IPOSS [15] [%] | Postemergence herbicidal activity (% control) ABUTH [16] [%] | PREEMERGENCE HERBICIDAL ACTIVITY (% CONTROL) CRN [17] [%] | Postemergence herbicidal activity (% control) IPOSS [18] [%] | PREEMERGENCE HERBICIDAL ACTIVITY (% CONTROL) SETVI [19] [%] | Postemergence herbicidal activity (% control) SORHA [20] [%] |
| --- | --- | --- | --- | --- | --- | --- | --- | --- | --- | --- | --- | --- | --- | --- | --- | --- | --- | --- | --- | --- |
| Cn1c(C(F)(F)F)cc(=O)n(-c2c(F)cc(Cl)c3cc(CCCl)oc23)c1=O [Compound 236] | 100 | 100 | 80 | 100 | 100 | 70 | 100 | 100 | 90 | 100 | 80 | 75 | 100 | 100 | 100 | 100 | 95 | 100 | 100 | 100 |
| Cn1c(C(F)(F)F)cc(=O)n(-c2c(F)cc(Cl)c3cc(C(C)(C)O)oc23)c1=O [Compound 242] | 100 | 100 | 100 | 100 | 100 | 100 | 100 | 100 | 100 | 100 | 100 | 100 | 100 | 100 | 100 | 100 | 100 | 100 | 100 | 100 |
| CCOC(OCC)c1cc2c(Cl)cc(F)c(-n3c(=O)cc(C(F)(F)F)n(C)c3=O)c2o1 [Compound 245] | 80 | 85 | 70 | 70 | 100 | 60 | 90 | 100 | 75 | 60 | 50 | 40 | 100 | 70 | 100 | 100 | 80 | 100 | 100 | 70 |
| COC(C)(C)c1cc2c(Cl)ccc(-n3c(=O)cc(C(F)(F)F)n(C)c3=O)c2o1 [Compound 251] | 100 | 95 | 90 | 95 | 100 | 90 | 95 | 100 | 90 | 100 | 100 | 70 | 90 | 100 | 100 | 100 | 95 | 100 | 100 | 95 |
| CCN(CC)Cc1cc2c(Cl)ccc(-n3c(=O)cc(C(F)(F)F)n(C)c3=O)c2o1 [Compound 257] | 10 | 70 | 20 | 70 | 90 | 0 | 0 | 20 | 70 | 30 | 30 | 20 | 40 | 70 | 70 | 100 | 10 | 60 | 70 | 50 |
| CNC(=O)OCCc1cc2c(Cl)cc(F)c(-n3c(=O)cc(C(F)(F)F)n(C)c3=O)c2o1 [Compound 261] | 100 | 95 | 80 | 100 | 100 | 80 | 100 | 90 | 100 | 100 | 100 | 80 | 100 | 100 | 100 | 100 | 95 | 100 | 100 | 100 |
| Cn1c(C(F)(F)F)cc(=O)n(-c2c(F)cc(Cl)c3cc(CCC(=O)O)oc23)c1=O [Compound 262] | 70 | 95 | 50 | 95 | 100 | 40 | 100 | 100 | 80 | 95 | 50 | 60 | 90 | 100 | 100 | 100 | 40 | 100 | 100 | 80 |
| COC(=O)CCc1cc2c(Cl)cc(F)c(-n3c(=O)cc(C(F)(F)F)n(C)c3=O)c2o1 [Compound 263] | 70 | 95 | 75 | 100 | 100 | 50 | 100 | 95 | 90 | 100 | 60 | 80 | 100 | 90 | 100 | 100 | 65 | 100 | 100 | 70 |
